Patent US20110217355A1, “CONTACT LENS BASED BIOACTIVE AGENT DELIVERY SYSTEM” (priority 2007, published 2011)
Read-outs that look alike come from different tables or passages of the source.

Columns and labels:
[1] = Physical properties of the surfactants obtained from literature; assay type: physicochemical; conditions: carbons in hydrophobic tail / total carbons
Procedure: Table 3 lists the surfactants utilized in this study and their relevant physical properties obtained from literature. The value of ‘fh’ is also listed, this is defined as the fraction of hydrophobic chain length of the surfactant and is calculated by taking the ratio of number of carbons in the hydrophobic tail of the surfactant to the total number of carbons present in the surfactant.

[2] = Surfactant release experiments from hydrogels in DI water (surface tension); assay type: physicochemical; conditions: for Slope (surfactant release vs rescaled time): p-HEMA gels, slope = √(2DSC*×100); for DSC*: surfactant diffusivity times critical aggregation concentration in p-HEMA gel, from fitting surfactant release data
Procedure: The rates of surfactant release were measured in 3.5 ml of DI water with water replacement after each measurement to maintain perfect sink conditions. The surfactant concentration in the release medium was determined by measuring surface tension (σ), which was then related to the concentration through a σ(C) calibration curve. The surface tension was measured by using a Wilhelmy plate (sand blasted platinum plate) attached to a Scaime France Microbalance which was further connected to a Stathan Universal transducer (SC001).
The rate of surfactant release from surfactant-laden contact lenses needs to be measured because an excessive release could lead to toxicity. Additionally, the rate of surfactant release impacts drug release. As described in the previous section, the surfactant concentration in the release medium was determined by measuring the surface tension of the solution, which is related to the bulk concentration (Data not shown).
where DS is the surfactant diffusivity, C* is the critical aggregation concentration (CAC), i.e., the concentration beyond which the surfactant aggregates inside the gel, t is time, Cp is the concentration of the surfactant present as aggregates inside the hydrogel, and h is the half-thickness of the hydrogel. The above equation is valid for diffusion of any solute that is loaded in the gel above saturation limit and so a fraction of the solute precipitates into aggregates. This equation is the equivalent of the Higuchi equation that is commonly utilized to model drug release from gels [Higuchi T. Rate of release of medicaments from ointment bases containing drugs in suspension. Journal of Pharmaceutical Sciences 1961; 50(10):874-875].
To validate the model and to understand the mechanism of surfactant transport, surfactant release studies were conducted from gels of different surfactant loadings (approximately 2%, 4% and 8% w/w in drug gel) and different gel thicknesses (˜100 and 200 μm in dry state). FIG. 8a-c show the surfactant release from 100 μm thick and 200 μm thick gels with three different surfactant concentration explored for 200 μm thick gels. The data is re-plotted in FIG. 9a-c with time axis rescaled to
The fact that association of Brij 700 with the gel matrix is strongly dependant on the gel thickness may be due to large number of ethylene oxide (EO) units in the surfactant.
The slope indicated in FIG. 9(a-c) represents the value of √{square root over (2DSC*×100)}.
As mentioned above, the critical aggregation concentration for Brij 700 in p-HEMA gels is more than 1%, and so the release data from gels loaded with 1% (w/w) can be fitted to the following equation to obtain the surfactant diffusivity [Ritger P L, Peppas N A. A simple equation for description of solute release 1. Fickian and non-Fickian release from mom-swellable devices in the form of slabs, spheres, cylinders and discs. Journal of Controlled Release 1987; 5:23-36].
Here DS is the diffusivity of the surfactant and h is the half-thickness of the gel. The diffusivity of Brij 700 from these hydrogels was determined to be 7.85×10^−17 m^2/s and subsequently the value of C* was evaluated from the already determined parameter ‘DsC*’ (Table 4) to be 2.4±1.1 mM, which is equivalent to 1.12±0.51% surfactant in a dry gel. This value is in reasonable agreement with the hypothesis C* for Brij 700 is approximately 2%, which was based on the overlapping percentage release data for 1% and 2% Brij 700 loaded gels.

[3] = calculated earlier (Kapoor and Chauhan 2008), reported for comparison; cited from earlier work
cornea = conditions: exposure to 0.05% solution for about 5 hours; cited from earlier work

fh (fraction of hydrophobic chain length of the surfactant) [1] | Slope (surfactant release vs rescaled time) [2] | DSC* [2] | average release of surfactant ([2]; 100 micron thick gel with 8% loading) | amount of surfactant released ([2]; 100 micron thick gel with 8% loading, 10 days) | surfactant released from gel ([2]; 100 micron thick gel with 8% loading, period of 10 days) | surfactant released into the post lens tear film ([2]; at the most half of the average release, lens on an eye) [µg/day] | C* as surfactant in a dry gel ([2]; equivalent of the mM value) [%] | C* (critical aggregation concentration) ([2]; in p-HEMA gel, evaluated from DsC* and DS) [mM] | diffusivity of the surfactant from hydrogels (DS) ([2]; p-HEMA gels loaded with 1% (w/w) surfactant) | Substance | DSC* [3] | Slope (surfactant release vs rescaled time) [3] | corneal hydration (cornea)
0.47 | 0.4802 ± 0.010 | 11.52 (μm)^2M/s × 10^6 |  |  |  |  |  |  |  | POE (10) oleyl ether [Brij 97] |  |  | 
0.31 |  |  |  |  |  |  |  |  |  | POE (20) oleyl ether [Brij 98] | 60.80 (μm)^2M/s × 10^6 | 1.1000 ± 0.013 | 
0.31 | 0.1846 ± 0.050 | 1.70 (μm)^2M/s × 10^6 | about 30 μg/day | around 300 μg | about 10% | ≤ 15 |  |  |  | POE (20) stearyl ether [Brij 78] |  |  | does not lead to any significant increase in corneal hydration
0.08 | 0.0613 ± 0.013 | 0.19 (μm)^2M/s × 10^6 |  |  |  |  | 1.12±0.51 | 2.4 ± 1.1 | 7.85×10^−17 m^2/s | POE (100) stearyl ether [Brij 700] |  |  | 
